Experimental data published in publication PMC3038380 (Bioorganic & Medicinal Chemistry, 2010).

Legend:
[1] = NMR chemical shift titration with DPC-d38; assay type: binding; conditions: pH 5.0, 1.0 mM octanoic acid or 1.14 mM ghrelin
[2] = free C8 fatty acid; cited from earlier work

unitary Gibbs free energy ΔGu0 of binding to DPC micelles [1]: -8.6 kcal/mol
SMILES: CCCCCCCC(=O)O [octanoic acid]
free energy for the transfer from aqueous into a hydrophobic environment [2]: -1.5 kcal/mol
